In patent publication US11345745B2, “Peptide-hinge-free flexible antibody-like molecule” (BIOMOLECULAR HOLDINGS LLC, priority 2011, dated 2022):

System: anti-Aβ mAb (6E10)
Experiment: Surface plasmon resonance (SPR) binding to immobilized anti-Aβ monoclonal antibody 6E10
Conditions: 6E10 immobilized on the surface of the SPR chip
Protocol: SPR tests were carried out using a Biacore T100 instrument (Biacore AB, Uppsala, Sweden). A ligand, biotin-labeled 6E10 monoclonal antibody (Covance, Princeton, N.J.), was immobilized at a concentration of 10 mg/ml in PBS onto a CAP sensor chip, Series S, using a Biotin CAPture Kit (GE Healthcare, Piscataway, N.J.). The sensor chip was loaded with a streptavidin capture reagent and regenerated according to the manufacturer's instruction, including an additional regeneration step using 0.25 MNaOH in 30% acetonitrile. Binding of Aβ symmetroadhesins and Aβ peptides was carried out at 25° C. in 10 mM Hepes buffer, pH 7,4, 150 mM NaCl, 3 mM EDTA, and 0.005 vol % Tween-20. Data was evaluated using Biacore T100 Evaluation Software, version 2.0.3.
Accordingly, the present inventors characterized the binding of the Aβ symmetroadhesins of the present inventors to one of these antibodies (6E10) using surface plasmon resonance (SPR). The present inventors compared the binding of Aβ peptides containing the [sequence] sequence (SEQ ID No. 2) which were expected to bind to 6E10 in a one-handed manner.

- binding to immobilized 6E10 (observed or not): No binding
Substance: Fc6: recombinant human IgG1 Fc protein beginning at 226CPPC core hinge, N-terminal cysteine, expressed in CHO cells
